{
  "source": "patent US12384765B2",
  "about": "“Catecholamine prodrugs for use in the treatment of Parkinson's Disease” (H. Lundbeck A/S, priority 2019, dated 2025)",
  "data": [
    {"assay": "Conversion of compounds in human plasma", "format": "in vitro ADME", "settings": "1 μM test compound, 37° C., 0-6 hr; nd: not detected", "protocol": "(§1) Frozen human plasma was thawed and then centrifuged at 3200×g for 5 min to remove debris. The pH value of the supernatant was then measured and adjusted to 7.4±0.1 by adding 1% phosphoric acid or 1 N sodium hydroxide. 2 μL of dosing solution (50 μM for test compounds and 100 μM for positive control (propantheline bromide)) was mixed with 98 μL of blank plasma to achieve 1 μM test compound and 2 μM positive control of final concentration. The mixture was incubated, and samples were withdrawn from the incubations at the pre-determined time points of 0, 0.5, 1, 2, 4 and 6 hr (in duplicate) at 37° C. in water bath. At each corresponding time point 10 μL inhibitor and 20 μL ascorbic acid and 2 μL formic acid (20%) are added, and then added 400 μL of “stop solution” (200 ng/mL tolbutamide plus 200 ng/mL labetalol in 50% ACN/MeOH) to precipitate protein. The substance was mixed thoroughly and thereafter Centrifugated at 4,000 rpm for 20 minutes. Then an aliquot of supernatant (50 μL) was transferred from each well to a sample plate and mixed with 100 μL ultrapure water. The plate was shaked at 800 rpm for about 10 minutes before submitting to LC-MS/MS analysis.\n(§2) Mass spectrometer (LC-MS/MS) Shimadzu LC 20-AD Shimadzu UHPLC API 4000. Analytical column ACQUITY UPLC® BEH Phenyl 1.7 μm 2.1×50 mm. Mobile phase A: 0.1% Formic Acid in Water. Mobile phase B: 0.1% Formic Acid in Acetonitrile. […] Flow rate 0.7 mL/min.", "values": [
      {"smiles": "CCCN1CCC[C@@H]2Cc3c(ccc(O)c3O[C@@H]3O[C@H](C(=O)OC)[C@@H](OC(=O)C(C)(C)C)[C@H](OC(=O)C(C)(C)C)[C@H]3OC(=O)C(C)(C)C)C[C@H]21", "note": "[Compound (26), (2S,3S,4S,5R,6S)-2-(methoxycarbonyl)-6-(((4aR,10aR)-7-hydroxy-1-propyl-1,2,3,4,4a,5,10,10a-octahydrobenzo[g]quinolin-6-yl)oxy)tetrahydro-2H-pyran-3,4,5-triyl tris(2,2-dimethylpropanoate)]", "Observed metabolite, Incubation in human plasma": "Compound (6)"},
      {"smiles": "CCCN1CCC[C@@H]2Cc3c(ccc(O)c3O[C@@H]3O[C@H](C(=O)OCC)[C@@H](OC(=O)C(C)(C)C)[C@H](OC(=O)C(C)(C)C)[C@H]3OC(=O)C(C)(C)C)C[C@H]21", "note": "[Compound (14), (2S,3S,4S,5R,6S)-2-(ethoxycarbonyl)-6-(((4aR,10aR)-7-hydroxy-1-propyl-1,2,3,4,4a,5,10,10a-octahydrobenzo[g]quinolin-6-yl)oxy)tetrahydro-2H-pyran-3,4,5-triyl tris(2,2-dimethylpropanoate)]", "Observed metabolite, Incubation in human plasma": "Compound (6)"},
      {"smiles": "CCCN1CCC[C@@H]2Cc3c(ccc(OCc4ccccc4)c3O[C@@H]3O[C@H](C(=O)O)[C@@H](O)[C@H](O)[C@H]3O)C[C@H]21", "note": "[Compound (4), (2S,3S,4S,5R,6S)-6-(((4aR,10aR)-7-(benzyloxy)-1-propyl-1,2,3,4,4a,5,10,10a-octahydrobenzo[g]quinolin-6-yl)oxy)-3,4,5-trihydroxytetrahydro-2H-pyran-2-carboxylic acid]", "Observed metabolite, Incubation in human plasma": "Compound A2"},
      {"smiles": "CCCN1CCC[C@@H]2Cc3c(ccc(O)c3O[C@@H]3OC(C(=O)OC)=C[C@H](OC(C)=O)[C@H]3OC(C)=O)C[C@H]21", "note": "[Compound (3), (2R,3R,4S)-2-(((4aR,10aR)-7-hydroxy-1-propyl-1,2,3,4,4a,5,10,10a-octahydrobenzo[g]quinolin-6-yl)oxy)-6-(methoxycarbonyl)-3,4-dihydro-2H-pyran-3,4-diyl diacetate]", "Observed metabolite, Incubation in human plasma": "Compound (9)"}
    ]},
    {"assay": "Conversion of compounds in human plasma", "format": "in vitro ADME", "settings": "incubation in human plasma and/or human hepatocytes", "protocol": "as §1, §2", "values": [
      {"smiles": "CCCN1CCC[C@@H]2Cc3c(ccc(O[C@@H]4O[C@H](C(=O)OC)[C@@H](OC(C)=O)[C@H](OC(C)=O)[C@H]4OC(C)=O)c3O[C@@H]3O[C@H](C(=O)OC)[C@@H](OC(C)=O)[C@H](OC(C)=O)[C@H]3OC(C)=O)C[C@H]21", "note": "[Compound I2, methyl (2S,3S,4S,5R,6S)-6-[[(4aR,10aR)-1-propyl-6-[(2S,3R,4S,5S,6S)-3,4,5-triacetoxy-6-methoxycarbonyl-tetrahydropyran-2-yl]oxy-3,4,4a,5,10,10a-hexahydro-2H-benzo[g]quinolin-7-yl]oxy]-3,4,5-triacetoxy-tetrahydropyran-2-carboxylate]", "appearance of compound (I) / conversion in vitro": "no vitro conversion"},
      {"smiles": "CCCN1CCC[C@@H]2Cc3c(ccc(O)c3O[C@@H]3O[C@H](C(=O)OCC)[C@@H](OC(C)=O)[C@H](OC(C)=O)[C@H]3OC(C)=O)C[C@H]21", "note": "[Compound (11), (2S,3S,4S,5R,6S)-2-(ethoxycarbonyl)-6-(((4aR,10aR)-7-hydroxy-1-propyl-1,2,3,4,4a,5,10,10a-octahydrobenzo[g]quinolin-6-yl)oxy)tetrahydro-2H-pyran-3,4,5-triyl triacetate]", "appearance of compound (I) / conversion in vitro": "converted to compound (Id-ia)"}
    ]}
  ]
}
